System: Escherichia coli strain ATCC25922
Assay: standard microdilution assay to determine minimum inhibitory concentrations (MICs)
Format: cell-based
Settings: Escherichia coli strain ATCC25922, microdilution
Procedure, shortened: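 MICs come from CLSI-guided microdilution in 100 μl, run alongside reference-strain performance standards. Values appear as "+" or "−" relative to 16 micrograms/ml, with "N/A" marking missing data.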

Structure (SMILES) | E. coli ATCC25922 MIC
C[C@H](NCCCNC(=N)N)c1ccc(-n2cc3cc(-c4cc(CCC5(CN)CC5)cc(Cl)c4F)[nH]c3nc2=O)cc1 [Compound 320] | + (a “+” indicates that the compound has an MIC value of 16 micrograms/ml or less)
N=C(N)NCCCNCc1ccc(-n2cc3cc(-c4cccc(CCCCN)c4F)[nH]c3nc2=O)cc1 [Compound 5] | + (a “+” indicates that the compound has an MIC value of 16 micrograms/ml or less)
CC(N)CCCc1cc(Cl)c(F)c(-c2cc3cn(-c4ccc(C5(NCCCNC(=N)N)CC5)cc4)c(=O)nc3[nH]2)c1 (stereo not drawn) [Compound 486] | + (a “+” indicates that the compound has an MIC value of 16 micrograms/ml or less)
NCCC[C@H](O)c1cc(OC(F)(F)F)cc(-c2cc3cn(-c4ccc(CNCCCN=C(N)N)cc4)c(=O)nc3[nH]2)c1 [Compound 75] | + (a “+” indicates that the compound has an MIC value of 16 micrograms/ml or less)
C=CC(NCCCNC(=N)N)c1ccc(-n2cc3cc(-c4cc(CCCC(C)N)cc(Cl)c4F)[nH]c3nc2=O)cc1 (stereo not drawn) [Compound 481] | + (a “+” indicates that the compound has an MIC value of 16 micrograms/ml or less)
C=CC(NCCCNC(=N)N)c1ccc(-n2cc3cc(-c4cc(CCCC(C)N)cc(C(F)(F)F)c4)[nH]c3nc2=O)cc1 (stereo not drawn) [Compound 501] | + (a “+” indicates that the compound has an MIC value of 16 micrograms/ml or less)
COc1cccc(OCCCN)c1NC(=O)Nc1nc(=O)c(-c2ccc(CNCCCNC(=N)N)cc2)c[nH]1 [Compound 185] | − (a “−” indicates that the compound has an MIC value greater than 16 micrograms/ml)
CC(CCCc1cc(-c2cc3cn(-c4ccc(C(C)NCCCNC(=N)N)cc4)c(=O)nc3[nH]2)cc(C(F)(F)F)c1)NC(=N)N (stereo not drawn) [Compound 276] | + (a “+” indicates that the compound has an MIC value of 16 micrograms/ml or less)
CC(C)c1cc(CCC(C)(C)CN)cc(-c2cc3cn(-c4ccc(CNCCCNC(=N)N)cc4)c(=O)nc3[nH]2)c1 [Compound 97] | + (a “+” indicates that the compound has an MIC value of 16 micrograms/ml or less)
NCCCCc1cc(OC(F)(F)F)c(Cl)c(-c2cc3cn(-c4ccc(CNCCCN=C(N)N)cc4)c(=O)nc3[nH]2)c1 [Compound 65] | + (a “+” indicates that the compound has an MIC value of 16 micrograms/ml or less)
CC(C)(CN)CCc1ccc(F)c(-c2cc3cn(-c4ccc(CNCCCNC(=N)N)cc4)c(=O)nc3[nH]2)c1 [Compound 117] | + (a “+” indicates that the compound has an MIC value of 16 micrograms/ml or less)
Cc1c(C#N)cc(CCCCN)cc1-c1cc2cn(-c3ccc(CNCCCNC(=N)N)cc3)c(=O)nc2[nH]1 [Compound 134] | + (a “+” indicates that the compound has an MIC value of 16 micrograms/ml or less)
C[C@H](N)CCCc1cc(-c2cc3cn(-c4ccc([C@H](C)NCCCNC(=N)N)cc4)c(=O)nc3[nH]2)cc2c1OCCO2 [Compound 469] | + (a “+” indicates that the compound has an MIC value of 16 micrograms/ml or less)
CC(C)c1cc(CCC[C@H](C)N)cc(-c2cc3cn(-c4ccc(CNCCCNC(=N)N)cc4)c(=O)nc3[nH]2)c1Cl [Compound 261] | + (a “+” indicates that the compound has an MIC value of 16 micrograms/ml or less)
CCc1cc(CCCCN)cc(-c2cc3cn(-c4ccc(CNCCCNC(=N)N)cc4)c(=O)nc3[nH]2)c1F [Compound 135] | + (a “+” indicates that the compound has an MIC value of 16 micrograms/ml or less)
C[C@H](N)CCCc1cc(-c2cc3cn(-c4ccc(CNCCCNC(=N)N)cc4)c(=O)nc3[nH]2)cc(C(F)(F)F)c1 [Compound 248] | + (a “+” indicates that the compound has an MIC value of 16 micrograms/ml or less)
N=C(N)NCCCNCc1ccc(-n2cc3cc(-c4cc(COCCN)ccc4F)[nH]c3nc2=O)cc1 [Compound 24] | + (a “+” indicates that the compound has an MIC value of 16 micrograms/ml or less)
C[C@H](N)COCc1cc(OC(F)(F)F)cc(-c2cc3cn(-c4ccc(CNCCCNC(=N)N)cc4)c(=O)nc3[nH]2)c1 [Compound 311] | + (a “+” indicates that the compound has an MIC value of 16 micrograms/ml or less)
CNC[C@@H]1C[C@@H](NC(=O)Nc2nc(=O)c(-c3ccc(CNCCCNC(=N)N)cc3)c[nH]2)CN1C[C@@H](C)CN [Compound 151] | + (a “+” indicates that the compound has an MIC value of 16 micrograms/ml or less)
CC(N)CCCc1cc(OC(F)(F)F)c(F)c(-c2cc3cn(-c4ccc(CNCCCNC(=N)N)cc4)c(=O)nc3[nH]2)c1 (stereo not drawn) [Compound 286] | + (a “+” indicates that the compound has an MIC value of 16 micrograms/ml or less)
C[C@@H](CN)OCc1cc(SC(F)(F)F)cc(-c2cc3cn(-c4ccc(CNCCCNC(=N)N)cc4)c(=O)nc3[nH]2)c1 [Compound 326] | + (a “+” indicates that the compound has an MIC value of 16 micrograms/ml or less)
CC(N)CCCc1cc(SC(F)(F)F)cc(-c2cc3cn(-c4ccc(C(CCO)NCCCNC(=N)N)cc4)c(=O)nc3[nH]2)c1 (stereo not drawn) [Compound 507] | + (a “+” indicates that the compound has an MIC value of 16 micrograms/ml or less)
N=C(N)NCCCNCc1ccc(-n2cc3cc(-c4cc(CCCCN)cc(CO)c4C(F)(F)F)[nH]c3nc2=O)cc1 [Compound 246] | + (a “+” indicates that the compound has an MIC value of 16 micrograms/ml or less)
CCc1cc(CCCCNC(=N)N)cc(-c2cc3cn(-c4ccc(CNCCCNC(=N)N)cc4)c(=O)nc3[nH]2)c1Cl [Compound 285] | + (a “+” indicates that the compound has an MIC value of 16 micrograms/ml or less)
NCCC[C@@H](O)c1cc(OC(F)(F)F)cc(-c2cc3cn(-c4ccc(CNCCCN=C(N)N)cc4)c(=O)nc3[nH]2)c1 [Compound 76] | + (a “+” indicates that the compound has an MIC value of 16 micrograms/ml or less)
COC(=O)NCCCCc1cc(-c2cc3cn(-c4ccc(CNCCCNC(=N)N)cc4)c(=O)nc3[nH]2)cc(OC(F)(F)F)c1OC [Compound 45] | + (a “+” indicates that the compound has an MIC value of 16 micrograms/ml or less)
COC(=O)C(NCCCNC(=N)N)c1ccc(-n2cc3cc(-c4cc(CCCC(C)N)cc(Cl)c4F)[nH]c3nc2=O)cc1 (stereo not drawn) [Compound 494] | + (a “+” indicates that the compound has an MIC value of 16 micrograms/ml or less)
N=C(N)NCCCNCc1ccc(-n2cc3cc(-c4cc(CCCN)cc(Cl)c4F)[nH]c3nc2=O)cc1 [Compound 228] | + (a “+” indicates that the compound has an MIC value of 16 micrograms/ml or less)
C[C@H](NCCCNC(=N)N)c1ccc(-n2cc3cc(-c4cc(COCCN)cc(OC(F)(F)F)c4)[nH]c3nc2=O)cc1 [Compound 70] | + (a “+” indicates that the compound has an MIC value of 16 micrograms/ml or less)
CC(CCCN)c1cc(OC(F)(F)F)cc(-c2cc3cn(-c4ccc(CNCCCNC(=N)N)cc4)c(=O)nc3[nH]2)c1 (stereo not drawn) [Compound 94] | + (a “+” indicates that the compound has an MIC value of 16 micrograms/ml or less)

Same assay, conditions: Escherichia coli strain ATCC25922, standard microdilution assay

Structure (SMILES) | E. coli ATCC25922 MIC
C[C@H](N)CCCc1cc(Cl)c(F)c(-c2cc3cn(-c4ccc([C@@H](C)N)cc4)c(=O)nc3[nH]2)c1 [Compound 406] | − (a “−” indicates that the compound has an MIC value greater than 16 micrograms/ml)
CC(NCCCNC(=N)N)c1ccc(-n2cc3cc(-c4cc(CC5CCC(N)C5)cc(SC(F)(F)F)c4)[nH]c3nc2=O)cc1 (mixture of isomers) [Compound 420] | + (a “+” indicates that the compound has an MIC value of 16 micrograms/ml or less)
C[C@H](CCNC(=N)N)NCc1ccc(-n2cc3cc(-c4cc(CC5CC(N)C5)cc(Cl)c4F)[nH]c3nc2=O)cc1 (stereo partly drawn) [Compound 334] | + (a “+” indicates that the compound has an MIC value of 16 micrograms/ml or less)
C[C@H](NCCCNC(=N)N)c1ccc(-n2cc3cc(-c4cc(CSC(C)(C)CN)cc(SC(F)(F)F)c4)[nH]c3nc2=O)cc1 [Compound 377] | + (a “+” indicates that the compound has an MIC value of 16 micrograms/ml or less)
C[C@H](N)c1ccc(-n2cc3cc(-c4cc(CCC5(CN)CC5)cc(C(F)(F)F)c4)[nH]c3nc2=O)cc1 [Compound 354] | − (a “−” indicates that the compound has an MIC value greater than 16 micrograms/ml)
CC(C)[C@H](NCCCNC(=N)N)c1ccc(-n2cc3cc(-c4cc(CCC[C@H](C)N)cc(Cl)c4F)[nH]c3nc2=O)cc1 [Compound 433] | + (a “+” indicates that the compound has an MIC value of 16 micrograms/ml or less)
CC[C@H](NCCCNC(=N)N)c1ccc(-n2cc3cc(-c4cc(CCC[C@H](C)N)cc(Cl)c4F)[nH]c3nc2=O)cc1 [Compound 392] | + (a “+” indicates that the compound has an MIC value of 16 micrograms/ml or less)
CN(CCCNC(=N)N)Cc1ccc(-n2cc3cc(-c4cc(CCCCN)cc(Cl)c4F)[nH]c3nc2=O)cc1 [Compound 378] | + (a “+” indicates that the compound has an MIC value of 16 micrograms/ml or less)
CC[C@H](NCCCNC(=N)N)c1ccc(-n2cc3cc(-c4cc(CCC[C@H](C)N)cc(C(F)(F)F)c4)[nH]c3nc2=O)cc1 [Compound 400] | + (a “+” indicates that the compound has an MIC value of 16 micrograms/ml or less)
C[C@H](N)CCCc1cc(-c2cc3cn(-c4ccc([C@H](C)NCCCNC(=N)N)cc4)c(=O)nc3[nH]2)c(F)c(C2CCOC2)c1 (stereo partly drawn) [Compound 466] | + (a “+” indicates that the compound has an MIC value of 16 micrograms/ml or less)
C[C@H](N)CCCc1cc2c(c(-c3cc4cn(-c5ccc([C@H](C)NCCCNC(=N)N)cc5)c(=O)nc4[nH]3)c1)OCCC2=O [Compound 456] | + (a “+” indicates that the compound has an MIC value of 16 micrograms/ml or less)
CN=C(N)NCCCNCc1ccc(-n2cc3cc(-c4cc(CCCC(C)N)cc(Cl)c4F)[nH]c3nc2=O)cc1 (stereo not drawn) [Compound 382] | + (a “+” indicates that the compound has an MIC value of 16 micrograms/ml or less)

From US9221827B2, “Antimicrobial compounds and methods of making and using the same” (Melinta Therapeutics, Inc., priority 2011, dated 2015)
